Results taken from patent US9365604B2, “Oligomer-nucleoside phosphate conjugates” (NEKTAR THERAPEUTICS, priority 2007, dated 2016).
Like-named read-outs stand apart in the source and are kept apart here.

What was measured:
PANC-1 = experiment: In vitro cytotoxicity assay (CellTiter-Glo); format: cell-based; details: 72 h exposure
Experimental: (§1) The objective of these studies was to determine the IC50 values for PEG-gemcitabine conjugates against gemcitabine-resistant cell lines based on data from previous Xenograft studies. The cells were exposed for 72 h, and cell viability assessed by using the CellTiter-Glo assay.
The PEG-gemcitabine derivatives and gemcitabine inhibited the growth of most of the cell lines with IC50 values from the nM to low μM range, except for PANC-1 cells. Like the previous study, some of the IC50 values should be interpreted carefully because the concentration range tested was not centered around the IC50. […] The PANC-1 pancreatic cell line, in contrast to BxPC-3, Capan-1, or MIA-PaCa-2, has been shown previously to be resistant in vitro to gemcitabine, and 4′-thio-FAC, a deoxycytidine sulfur- and fluoro-substituted analog (Zajchowski et al., (2005). Int J Cancer. 114(6), 1002-9).

NCI/ADR-RES = experiment: Sulforhodamine B (SRB) growth inhibition assay; format: cell-based, Human
Experimental: In Vitro Screening of PEG-Gemcitabine Monophosphate in Selected Human Cancer Cell Lines
(§2) The aim was to determine the GI50 values for PEG-floxuridine conjugates against a panel of cell lines, and based on previous data from Xenograft studies. The cells were exposed for 24 h, and cell viability assessed by using the Sulphorhodamine (SRB) assay. The test articles were solubilized in dimethylsulfoxide and were tested at four different molar (M) concentrations; 10^−4, 10^−5, 10^−6, M. GI50 (the concentration needed to reduce the growth of treated cells to half that of untreated control cells) was calculated for each condition ([(Ti−Tz)/(C-Tz)]×100=50, where Ti, Tz, and C refer to absorbance values obtained from each tested concentration, time zero, and control treatment, respectively).
as §2, with “The objective” for “The aim”, “the IC50” for “the GI50”, “for PEG-gemcitabine” for “for PEG-floxuridine”, “in dimethyl sulfoxide” for “in dimethylsulfoxide”, “10^−6, 10^−7” for “10^−6,”, “condition ([(Ti−Tz)/(C−Tz)]×100=50,” for “condition ([(Ti−Tz)/(C-Tz)]×100=50,”

HCT-116 = experiment: In vitro cytotoxicity assay (CellTiter-Glo); format: cell-based; details: for IC50: 72 h exposure, CellTiter-Glo
Experimental: (§3) The objective of these studies were to determine the IC50 values for PEG-floxuridine conjugates against floxuridine-resistant cell lines based on data from previous Xenograft studies. The cells were exposed for 72 h, and cell viability assessed by using the CellTiter-Glo assay.
as §1

MIA PaCa-2 = experiment: In vitro cytotoxicity assay (CellTiter-Glo); format: cell-based; details: for IC50: 72 h exposure, CellTiter-Glo
Experimental: as §3, §1

HT-29 = experiment: In vitro cytotoxicity assay (CellTiter-Glo); format: cell-based; details: for IC50: 72 h exposure, CellTiter-Glo
Experimental: as §3, §1

DU145 = experiment: Sulforhodamine B (SRB) growth inhibition assay; format: cell-based, Human; details: SRB assay
Experimental: as §2, with “The cells were exposed for 24 h, and cell viability assessed by using the Sulphorhodamine (SRB) assay.” left out
The objective was to determine the IC50 values for PEG-gemcitabine conjugates against a panel of cell lines, and based on previous data from Xenograft studies. […] The test articles were solubilized in dimethyl sulfoxide and were tested at four different molar (M) concentrations; 10^−4, 10^−5, 10^−6, 10^−7 M. GI50 (the concentration needed to reduce the growth of treated cells to half that of untreated control cells) was calculated for each condition ([(Ti−Tz)/(C−Tz)]×100=50, where Ti, Tz, and C refer to absorbance values obtained from each tested concentration, time zero, and control treatment, respectively).

CAKI-1 = experiment: In vitro cytotoxicity assay (CellTiter-Glo); format: cell-based; details: for IC50: 72 h exposure, CellTiter-Glo
MDCK cells = experiment: Bi-directional permeability in MDCK cells
Description: (§4) Bi-Directional Permeability of PEG-Floxuridine Conjugates in Caco-2 and MDCK Cells

Caco-2 cells = experiment: Bi-directional permeability in Caco-2 cells
Description: as §4

[1] = on a mM basis
Experimental: Cells were inoculated into 24-well microtiter plates in 100 μL at 5×10^3 cells/well, in duplicate. After 24 h, test articles were added to the cells for 24 or 48 h, after which time the supernatant from each of the wells was collected and stored below −15° C. until LC/MS analysis.

NCI-H460 = experiment: In vitro cytotoxicity assay (CellTiter-Glo); format: cell-based; details: for IC50: 72 h exposure, CellTiter-Glo
Experimental: as §1

DLD-1 = experiment: In vitro cytotoxicity assay (CellTiter-Glo); format: cell-based; details: for IC50: 72 h exposure, CellTiter-Glo
Experimental: as §1

SW-620 = experiment: In vitro cytotoxicity assay (CellTiter-Glo); format: cell-based; details: for IC50: 72 h exposure, CellTiter-Glo
Experimental: as §1

AS283 = experiment: In vitro cytotoxicity assay (CellTiter-Glo); format: cell-based; details: for IC50: 72 h exposure, CellTiter-Glo
Experimental: as §1

HL-60 = experiment: In vitro cytotoxicity assay (CellTiter-Glo); format: cell-based; details: for IC50: 72 h exposure, CellTiter-Glo
Experimental: as §1

CCRF-CEM = experiment: In vitro cytotoxicity assay (CellTiter-Glo); format: cell-based; details: for IC50: 72 h exposure, CellTiter-Glo
Experimental: as §1

NCI-H522 = experiment: In vitro cytotoxicity assay (CellTiter-Glo); format: cell-based; details: for IC50: 72 h exposure, CellTiter-Glo
Experimental: as §1

K-562 = experiment: In vitro cytotoxicity assay (CellTiter-Glo); format: cell-based; details: for IC50: 72 h exposure, CellTiter-Glo
Experimental: as §1

RL = experiment: In vitro cytotoxicity assay (CellTiter-Glo); format: cell-based; details: for IC50: 72 h exposure, CellTiter-Glo
Experimental: as §1

NCI-H23 = experiment: In vitro cytotoxicity assay (CellTiter-Glo); format: cell-based; details: for IC50: 72 h exposure, CellTiter-Glo
Experimental: as §1

[2] = cells exposed for 24 h, read-out: GI50 values (μM) NCI/ADR-RES
[3] = 48 h drug exposure, read-out: GI50 (molar concentration) in Cell Line DU145
[4] = cells exposed for 24 h, read-out: GI50 values (μM) DU145

For COCCOCCOCCOP(=O)(O)OC[C@H]1O[C@@H](n2ccc(N)nc2=O)C(F)(F)[C@@H]1O.Cl [Gemcitabine Mono (mPEG3), 5′-gemcitabine methoxy tri(ethylene glycol) phosphate hydrochloride], the IC50 (PANC-1) was > 1e+06 nM, the GI50 (NCI/ADR-RES; [2]) was 1.7 µM and the “Ratio vs gem (IC50) HCT-116” value (HCT-116) was 2. The IC50 (HCT-116) was 2.9 nM, the “Ratio vs gem (IC50) MIA PaCa-2” value (MIA PaCa-2) was 3 and the IC50 (MIA PaCa-2) was 76 nM. The “Ratio vs gem (IC50) HT-29” value (HT-29) was 7, the IC50 (HT-29) was 755 nM and the GI50 (DU145; [3]) was < 0.1 µM. For the same molecule, the GI50 (DU145; [4]) was < 0.1 µM, the “Ratio vs gem (IC50) CAKI-1” value (CAKI-1) was 3 and the IC50 (CAKI-1) was 21 nM. The “Papp A -> B” value (MDCK cells) was <0.06 10^−6 cm/s, the “Papp B -> A” value (MDCK cells) was <0.08 10^−6 cm/s and the Significant efflux (MDCK cells) was “No”. For the same molecule, the “percent recovery A -> B” value (MDCK cells) was 91%, the “percent recovery B -> A” value (MDCK cells) was 96% and the “Papp A -> B” value (Caco-2 cells) was <0.06 10^−6 cm/s. For the same molecule, the “Papp B -> A” value (Caco-2 cells) was <0.08 10^−6 cm/s, the Significant efflux (Caco-2 cells) was “No” and the “percent recovery A -> B” value (Caco-2 cells) was 78%. The “percent recovery B -> A” value (Caco-2 cells) was 90%, the “remains after 24 and 48 h” value [1] was “approximately 80%” and the “Ratio vs gem (IC50) NCI-H460” value (NCI-H460) was 3. For the same molecule, the IC50 (NCI-H460) was 43 nM, the “Ratio vs gem (IC50) DLD-1” value (DLD-1) was 4 and the IC50 (DLD-1) was 93 nM. The “Ratio vs gem (IC50) SW-620” value (SW-620) was 2, the IC50 (SW-620) was 95 nM and the “Ratio vs gem (IC50) AS283” value (AS283) was 3. The IC50 (AS283) was 408 nM, the “Ratio vs gem (IC50) HL-60” value (HL-60) was 1 and the IC50 (HL-60) was 2 nM. The “Ratio vs gem (IC50) CCRF-CEM” value (CCRF-CEM) was 1, the IC50 (CCRF-CEM) was 6.5 nM and the “Ratio vs gem (IC50) NCI-H522” value (NCI-H522) was 8. The IC50 (NCI-H522) was 36 nM, the “Ratio vs gem (IC50) K-562” value (K-562) was 1 and the IC50 (K-562) was 914 nM. The “Ratio vs gem (IC50) RL” value (RL) was 2, the IC50 (RL) was 568 nM and the “Ratio vs gem (IC50) NCI-H23” value (NCI-H23) was 3. For the same molecule, the IC50 (NCI-H23) was 18 nM.

In the case of COCCOCCOCCOCCOCCOCCOCCOP(=O)(O)OC[C@H]1O[C@@H](n2ccc(N)nc2=O)C(F)(F)[C@@H]1O.Cl [Gemcitabine Mono (mPEG7), 5′-gemcitabine methoxy hepta(ethylene glycol) phosphate hydrochloride], the IC50 (PANC-1) is reported as > 1e+06 nM, the GI50 (NCI/ADR-RES; 48 h drug exposure, read-out: GI50 (molar concentration) in Cell Line NCI/ADR-RES) is reported as 2 µM and the GI50 (NCI/ADR-RES; [2]) is reported as 2 µM. The “Ratio vs gem (IC50) HCT-116” value (HCT-116) was 2, the IC50 (HCT-116) was 4 nM and the “Ratio vs gem (IC50) MIA PaCa-2” value (MIA PaCa-2) was 3. The IC50 (MIA PaCa-2) was 84 nM, the “Ratio vs gem (IC50) HT-29” value (HT-29) was 56 and the IC50 (HT-29) was 6250 nM. For the same molecule, the GI50 (DU145; [3]) was < 0.1 µM, the GI50 (DU145; [4]) was < 0.1 µM and the “Ratio vs gem (IC50) CAKI-1” value (CAKI-1) was 6. The IC50 (CAKI-1) was 50 nM, the “Papp A -> B” value (MDCK cells) was <0.06 10^−6 cm/s and the “Papp B -> A” value (MDCK cells) was <0.08 10^−6 cm/s. For the same molecule, the Significant efflux (MDCK cells) was “No”, the “percent recovery A -> B” value (MDCK cells) was 94% and the “percent recovery B -> A” value (MDCK cells) was 96%. For the same molecule, the “Papp A -> B” value (Caco-2 cells) was <0.06 10^−6 cm/s, the “Papp B -> A” value (Caco-2 cells) was <0.08 10^−6 cm/s and the Significant efflux (Caco-2 cells) was “No”. The “percent recovery A -> B” value (Caco-2 cells) was 74%, the “percent recovery B -> A” value (Caco-2 cells) was 86% and the “remains after 24 and 48 h” value [1] was “approximately 80%”. The “Ratio vs gem (IC50) NCI-H460” value (NCI-H460) was 3, the IC50 (NCI-H460) was 48 nM and the “Ratio vs gem (IC50) DLD-1” value (DLD-1) was 2. The IC50 (DLD-1) was 36 nM, the “Ratio vs gem (IC50) SW-620” value (SW-620) was 4 and the IC50 (SW-620) was 182 nM. The “Ratio vs gem (IC50) AS283” value (AS283) was 3, the IC50 (AS283) was 398 nM and the “Ratio vs gem (IC50) HL-60” value (HL-60) was 2. For the same molecule, the IC50 (HL-60) was 2.6 nM, the “Ratio vs gem (IC50) CCRF-CEM” value (CCRF-CEM) was 1 and the IC50 (CCRF-CEM) was 10 nM. For the same molecule, the “Ratio vs gem (IC50) NCI-H522” value (NCI-H522) was 6, the IC50 (NCI-H522) was 26 nM and the “Ratio vs gem (IC50) K-562” value (K-562) was 2. For the same molecule, the IC50 (K-562) was 1150 nM, the “Ratio vs gem (IC50) RL” value (RL) was 1 and the IC50 (RL) was 259 nM. The “Ratio vs gem (IC50) NCI-H23” value (NCI-H23) was 7 and the IC50 (NCI-H23) was 47 nM.
